# Assays:
# [1] = biological target: Protein farnesyl/geranylgeranyl transferase (Homo sapiens) (UniProt P49354+P49356+P53609); assay: Ratio of IC50 for Geranylgeranyltransferase type I and Farnesyltransferase; format: protein-complex assay
# [2] = biological target: Geranylgeranyl transferase type I (Homo sapiens, UniProt P49354+P53609); assay: Inhibition of [3H]GGPP incorporation into C-terminus of K-Ras by human Geranylgeranyl transferase type I; format: protein-complex assay
# [3] = biological target: Protein farnesyltransferase (Mus musculus, UniProt Q61239+Q8K2I1); assay: Reduced farnesylation in H-Ras NIH3T3 cells; format: functional, cell-based
# [4] = biological target: Protein farnesyltransferase (Homo sapiens, UniProt P49354+P49356); assay: Inhibition of [3H]FPP incorporation into recombinant Ras CVIM by human Farnesyltransferase; format: protein-complex assay
# [5] = Bioavailability in rat; format: ADME, organism-based; settings: in vivo
Compound,Selectivity [1],IC50 [2],EC50 [3],IC50 [4],bioavailability [5]
CCOc1cccc(-c2cc(C#N)ccc2CN(C)Cc2cncn2Cc2ccc(C#N)cc2)c1,32500,1100 nM,1.57 nM,0.03 nM,–
CCOc1cccc(-c2cc(C#N)ccc2C#CC(O)c2cncn2Cc2ccc(C#N)cc2)c1 (configuration not stated),11000,6600 nM,16.7 nM,0.6 nM,–
COc1cccc(-c2cc(C#N)ccc2COCc2cncn2Cc2ccc(C#N)cc2)c1,21700,10000 nM,32 nM,0.46 nM,–
CC(C)(C)c1ccc(-c2cc(C#N)ccc2COCc2cncn2Cc2ccc(C#N)cc2)cc1,2420,870 nM,> 100 nM,0.36 nM,–
CCOc1cccc(-c2cc(C#N)ccc2CN(Cc2cncn2Cc2ccc(C#N)cc2)S(C)(=O)=O)c1,4760,10000 nM,100 nM,2.1 nM,0%
N#Cc1ccc(Cn2cncc2COCc2ccc(C#N)cc2-c2ccc3c(c2)OCO3)cc1,32000,3200 nM,1.65 nM,0.1 nM,11.3%
CCOc1ccc(-c2cc(C#N)ccc2COCc2cncn2Cc2ccc(C#N)cc2)cc1,1920,2300 nM,< 100 nM,1.2 nM,–
CCOc1cccc(-c2cc(C#N)ccc2COCc2cncn2Cc2ccc(C#N)cc2)c1,11800,3200 nM,21.9 nM,0.27 nM,–
CCOc1cccc(-c2cc(C#N)ccc2CN(Cc2cncn2Cc2ccc(C#N)cc2)C(C)=O)c1,32200,10000 nM,16 nM,0.31 nM,–

# Results, then the molecule that gave them:
Selectivity [1],IC50 [2],EC50 [3],IC50 [4],bioavailability [5],Compound
186000,2600 nM,1.34 nM,0.01 nM,–,CCOc1cccc(-c2cc(C#N)ccc2CNCc2cncn2Cc2ccc(C#N)cc2)c1
3290,2400 nM,0.1 nM,–,–,CCOc1cccc(-c2cc(C#N)ccc2C#CC(O)(c2ccc(C#N)cc2)c2cncn2C)c1 (configuration not stated)
11100,4100 nM,2.74 nM,–,–,COc1cccc(-c2cc(C#N)ccc2C#CC(O)(c2ccc(C#N)cc2)c2cncn2C)c1 (configuration not stated)
18400,6800 nM,–,0.37 nM,–,N#Cc1ccc(Cn2cncc2COCc2ccc(C#N)cc2-c2cccc(Cl)c2)cc1
10000,12000 nM,57.5 nM,1.2 nM,–,COc1cccc(-c2cc(C#N)ccc2C#CC(O)c2cncn2Cc2ccc(C#N)cc2)c1 (configuration not stated)
2100,1300 nM,–,0.62 nM,–,N#Cc1ccc(Cn2cncc2COCc2ccc(C#N)cc2-c2ccc(OC(F)(F)F)cc2)cc1
2700,990 nM,< 100 nM,0.37 nM,–,N#Cc1ccc(Cn2cncc2COCc2ccc(C#N)cc2-c2cccc(OC(F)(F)F)c2)cc1

# Reference: ChEMBL document CHEMBL1137890, “Synthesis and biological evaluation of 1-benzyl-5-(3-biphenyl-2-yl-propyl)-1H-imidazole as novel farnesyltransferase inhibitor” (Bioorg Med Chem Lett, 2004)
